Reference: paper PMC6522510 (Nature Communications, 2019)

Columns and labels:
Set-up in all cases: species or system AML cell lines (8); Primary HTS, single concentration about 10 uM, Cell Titer Glo viability; log10 luminescence, per cent inhibition relative to cycloheximide control
Conditions in all cases: 72 h, relative to cycloheximide control, log10 luminescence; inhibitor
MOLM-13 = test system: MOLM-13
M07e = test system: M07e
MV4-11 = test system: MV4-11
CMS = test system: CMS
ML-2 = test system: ML-2
CHRF288-11 = test system: CHRF288-11
U937 = test system: U937
CMK = test system: CMK

COc1ccccc1Nc1ncc(-c2ccccc2)o1 [SJ000573117-1, U14961/90/1]
MOLM-13 %inh (MOLM-13): 90.67%
M07e %inh (M07e): 4.937%
MV4-11 %inh (MV4-11): 83.21%
CMS %inh (CMS): -1.143%
ML-2 %inh (ML-2): 0.6262%
CHRF288-11 %inh (CHRF288-11): 5.085%
U937 %inh (U937): -2.759%
CMK %inh (CMK): -0.2443%

NC(=O)c1ccc(Oc2nccc(-c3c(-c4ccc(F)cc4)ncn3C3CCNCC3)n2)cc1 [SJ000573120-1, JB27193-061B1]
MOLM-13 %inh (MOLM-13): 6.408%
M07e %inh (M07e): -0.791%
MV4-11 %inh (MV4-11): 1.936%
CMS %inh (CMS): -1.264%
ML-2 %inh (ML-2): 1.469%
CHRF288-11 %inh (CHRF288-11): 0.2701%
U937 %inh (U937): 4.71%
CMK %inh (CMK): 7.904%

Fc1cccc(COc2ccc(Nc3ncnc4sc(-c5cccs5)cc34)cc2Cl)c1 [SJ000573122-1, U22476/39/1]
MOLM-13 %inh (MOLM-13): 3.265%
M07e %inh (M07e): -0.3704%
MV4-11 %inh (MV4-11): -2.021%
CMS %inh (CMS): -1.772%
ML-2 %inh (ML-2): 0.7454%
CHRF288-11 %inh (CHRF288-11): -6.815%
U937 %inh (U937): 3.407%
CMK %inh (CMK): 1.871%

Fc1ccc(-c2ncn(C3CCNCC3)c2-c2ccnc(Oc3ccc4c(c3)OCO4)n2)cc1 [SJ000573123-1, JB27026-196B1]
MOLM-13 %inh (MOLM-13): 2.344%
M07e %inh (M07e): 3.354%
MV4-11 %inh (MV4-11): 0.1546%
CMS %inh (CMS): 0.7899%
ML-2 %inh (ML-2): 3.564%
CHRF288-11 %inh (CHRF288-11): 7.293%
U937 %inh (U937): 5.059%
CMK %inh (CMK): 13.54%

CS(=O)(=O)CCNCc1ccc(-c2ccc3ncnc(Nc4ccc(OCc5ccccc5)c(C(F)(F)F)c4)c3c2)o1 [SJ000573124-1, U14859/90/2]
MOLM-13 %inh (MOLM-13): 3.836%
M07e %inh (M07e): -5.391%
MV4-11 %inh (MV4-11): -0.8429%
CMS %inh (CMS): -0.5761%
ML-2 %inh (ML-2): 3.074%
CHRF288-11 %inh (CHRF288-11): -4.921%
U937 %inh (U937): 1.669%
CMK %inh (CMK): -0.3954%

Fc1ccc(-c2ncn(C3CCNCC3)c2-c2ccnc(Oc3ccc(Oc4ccccc4)cc3)n2)cc1 [SJ000573126-1, JB27026-104B1]
MOLM-13 %inh (MOLM-13): 28.44%
M07e %inh (M07e): 10.64%
MV4-11 %inh (MV4-11): 29.08%
CMS %inh (CMS): 2.898%
ML-2 %inh (ML-2): 34.19%
CHRF288-11 %inh (CHRF288-11): 38.59%
U937 %inh (U937): 16.46%
CMK %inh (CMK): 18.72%

COc1ccc(-c2ccncc2)cc1C(N)=O [SJ000573127-1, R12444/16/1]
MOLM-13 %inh (MOLM-13): 4.454%
M07e %inh (M07e): 1.948%
MV4-11 %inh (MV4-11): -1.177%
CMS %inh (CMS): 5.051%
ML-2 %inh (ML-2): 2.021%
CHRF288-11 %inh (CHRF288-11): -1.562%
U937 %inh (U937): 2.206%
CMK %inh (CMK): 5.063%

CNC(=O)c1cc(-c2ccc(F)cc2)cc(-c2ccc(S(=O)(=O)N3CCCC3)cc2)c1N [SJ000573128-1, R11976/170/3]
MOLM-13 %inh (MOLM-13): 10.13%
M07e %inh (M07e): 5.294%
MV4-11 %inh (MV4-11): 2.522%
CMS %inh (CMS): 9.624%
ML-2 %inh (ML-2): 6.119%
CHRF288-11 %inh (CHRF288-11): 14.81%
U937 %inh (U937): 15.8%
CMK %inh (CMK): 31.99%

COc1ccc2cc(-c3c(-c4ccncc4)nc(-c4ccc([S+](C)[O-])cc4)n3C)ccc2c1 (stereo not shown) [SJ000573130-1, NJ44241-161A1]
MOLM-13 %inh (MOLM-13): -0.6311%
M07e %inh (M07e): -4.153%
MV4-11 %inh (MV4-11): -3.083%
CMS %inh (CMS): -2.967%
ML-2 %inh (ML-2): -0.4869%
CHRF288-11 %inh (CHRF288-11): 0.3346%
U937 %inh (U937): -2.991%
CMK %inh (CMK): -2.307%

Fc1ccc(-c2nc3n(c2-c2ccncc2)CCS3)cc1 [SJ000573131-1, RJA-12113-255 | U519/32/1 | SKF 86002]
MOLM-13 %inh (MOLM-13): -3.313%
M07e %inh (M07e): 0.008042%
MV4-11 %inh (MV4-11): -2.292%
CMS %inh (CMS): -0.311%
ML-2 %inh (ML-2): 0.01337%
CHRF288-11 %inh (CHRF288-11): -0.4036%
U937 %inh (U937): -2.013%
CMK %inh (CMK): 1.491%

c1cnn2ncc(-c3ccnc(NCCCN4CCOCC4)n3)c2c1 [SJ000573132-1, U14929/199/1]
MOLM-13 %inh (MOLM-13): 36.05%
M07e %inh (M07e): 4.031%
MV4-11 %inh (MV4-11): 15.28%
CMS %inh (CMS): 12.25%
ML-2 %inh (ML-2): 4.815%
CHRF288-11 %inh (CHRF288-11): 17.57%
U937 %inh (U937): 21.78%
CMK %inh (CMK): 3.496%

CCS(=O)(=O)c1ccc(OC)c(Nc2ncc(-c3cccc(-c4ccccc4F)c3)o2)c1 [SJ000573133-1, U16399/42/1]
MOLM-13 %inh (MOLM-13): 73.99%
M07e %inh (M07e): -0.6473%
MV4-11 %inh (MV4-11): 49.91%
CMS %inh (CMS): -1.131%
ML-2 %inh (ML-2): 1.693%
CHRF288-11 %inh (CHRF288-11): 3.996%
U937 %inh (U937): -2.484%
CMK %inh (CMK): -2.911%

Cc1ccc(Nc2ccnc(Nc3cccc(C(N)=O)c3)n2)cc1O [SJ000573134-1, R4218/174/1]
MOLM-13 %inh (MOLM-13): 95.23%
M07e %inh (M07e): 3.53%
MV4-11 %inh (MV4-11): 65.12%
CMS %inh (CMS): -1.873%
ML-2 %inh (ML-2): 3.588%
CHRF288-11 %inh (CHRF288-11): 5.659%
U937 %inh (U937): -1.642%
CMK %inh (CMK): 14.84%

CNC(=O)c1cccc(C#Cc2cncnc2Nc2ccc(OCc3cccc(F)c3)c(Cl)c2)c1 [SJ000573135-1, U17545/42/1]
MOLM-13 %inh (MOLM-13): 2.058%
M07e %inh (M07e): 2.556%
MV4-11 %inh (MV4-11): 0.5885%
CMS %inh (CMS): 2.176%
ML-2 %inh (ML-2): 1.577%
CHRF288-11 %inh (CHRF288-11): -0.4909%
U937 %inh (U937): 0.8403%
CMK %inh (CMK): 2.154%

Cc1nc(-c2ccccc2)n2nc(NCCCN3CCOCC3)ncc12 [SJ000573136-1, U19891/100/1]
MOLM-13 %inh (MOLM-13): 7.46%
M07e %inh (M07e): -0.8598%
MV4-11 %inh (MV4-11): 3.076%
CMS %inh (CMS): 0.3241%
ML-2 %inh (ML-2): 5.663%
CHRF288-11 %inh (CHRF288-11): 6.275%
U937 %inh (U937): 1.344%
CMK %inh (CMK): 23.01%

N#Cc1cccc(Nc2ncc(-c3ccccc3)o2)c1 [SJ000573137-1, U15924/27/1]
MOLM-13 %inh (MOLM-13): 64.56%
M07e %inh (M07e): -5.302%
MV4-11 %inh (MV4-11): 38.03%
CMS %inh (CMS): -1.613%
ML-2 %inh (ML-2): 1.759%
CHRF288-11 %inh (CHRF288-11): -9.448%
U937 %inh (U937): 0.4025%
CMK %inh (CMK): 10.57%

CC1=C(C(=O)Nc2ccc3[nH]ncc3c2)C(c2ccc3ccccc3c2)CC(=O)N1 (stereo not shown) [SJ000573139-1, KG204183-124A1]
MOLM-13 %inh (MOLM-13): 1.247%
M07e %inh (M07e): 1.439%
MV4-11 %inh (MV4-11): 30.46%
CMS %inh (CMS): 1.368%
ML-2 %inh (ML-2): 11.01%
CHRF288-11 %inh (CHRF288-11): 15.76%
U937 %inh (U937): 2.011%
CMK %inh (CMK): 48.89%

NS(=O)(=O)c1ccc(-c2ccc3c(NC(=O)C4CC4)n[nH]c3c2)cc1 [SJ000573140-1, VB100064-161A1]
MOLM-13 %inh (MOLM-13): -3.649%
M07e %inh (M07e): -0.07238%
MV4-11 %inh (MV4-11): -0.6023%
CMS %inh (CMS): -3.489%
ML-2 %inh (ML-2): 0.5159%
CHRF288-11 %inh (CHRF288-11): 4.361%
U937 %inh (U937): -0.5779%
CMK %inh (CMK): -4.867%

CNC(=O)Oc1cc(C)c(/C=C/c2cncc(C(=O)NC)c2)c(C)c1 [SJ000573141-1, U11962/26/1]
MOLM-13 %inh (MOLM-13): 3.548%
M07e %inh (M07e): 6.045%
MV4-11 %inh (MV4-11): 1.51%
CMS %inh (CMS): -0.3622%
ML-2 %inh (ML-2): 1.2%
CHRF288-11 %inh (CHRF288-11): 7.117%
U937 %inh (U937): 0.6726%
CMK %inh (CMK): 8.893%

Nc1nccc(-c2c(-c3ccc(F)cc3)nn3cc(C(F)(F)F)ccc23)n1 [SJ000573142-1, U14741/95/1]
MOLM-13 %inh (MOLM-13): 0.5656%
M07e %inh (M07e): 93.92%
MV4-11 %inh (MV4-11): -1.787%
CMS %inh (CMS): -0.8913%
ML-2 %inh (ML-2): 1.904%
CHRF288-11 %inh (CHRF288-11): 1.132%
U937 %inh (U937): -1.917%
CMK %inh (CMK): -0.4076%

N#Cc1ccc2c(-c3ccnc(NC4CC4)n3)c(-c3ccc(F)cc3)nn2c1 [SJ000573143-1, U15304/34/1]
MOLM-13 %inh (MOLM-13): 2.3%
M07e %inh (M07e): 7.135%
MV4-11 %inh (MV4-11): -1.164%
CMS %inh (CMS): 2.587%
ML-2 %inh (ML-2): 1.142%
CHRF288-11 %inh (CHRF288-11): -0.1104%
U937 %inh (U937): 0.4809%
CMK %inh (CMK): 2.803%

Fc1ccc(-c2ncn(CCCN3CCOCC3)c2-c2ccncc2)cc1 [SJ000573144-1, LDD-19018-277B]
MOLM-13 %inh (MOLM-13): 2.986%
M07e %inh (M07e): 0.1764%
MV4-11 %inh (MV4-11): -0.2277%
CMS %inh (CMS): -0.05724%
ML-2 %inh (ML-2): 2.361%
CHRF288-11 %inh (CHRF288-11): 5.233%
U937 %inh (U937): -0.4661%
CMK %inh (CMK): 29.46%

O=C(Nc1n[nH]c2nc(-c3ccco3)c(Br)cc12)C1CC1 [SJ000573145-1, AG201339-071A1]
MOLM-13 %inh (MOLM-13): 0.2319%
M07e %inh (M07e): -5.829%
MV4-11 %inh (MV4-11): 10.91%
CMS %inh (CMS): 6.31%
ML-2 %inh (ML-2): -0.5766%
CHRF288-11 %inh (CHRF288-11): -1.607%
U937 %inh (U937): -0.3135%
CMK %inh (CMK): 0.1482%
